Test results taken from ChEMBL document CHEMBL1201862, “PubChem BioAssay data set” (2004).
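96-well plates; 48 h exposure; 5 concentrations. Endpoints by linear interpolation between flanking doses. Not reached: highest tested concentration assigned. At the GI50, growth is halved.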 Active and inactive are the calls of the source. Cut-off read from the data, not from the text of the source: active = GI50 up to about 1.1 µM and inactive = higher.

Key:
Experiment in all cases: NCI tumour cell line growth inhibition, 48 h
RXF 393 = system: RXF 393
SF-295 = system: SF-295
SN12C = system: SN12C
MDA-N = system: MDA-N
M14 = system: M14
HOP-92 = system: HOP-92
NCI-H226 = system: NCI-H226
HCT-15 = system: HCT-15
NCI-H460 = system: NCI-H460
OVCAR-8 = system: OVCAR-8
BT-549 = system: BT-549
UO-31 = system: UO-31
HT-29 = system: HT-29
HCC 2998 = system: HCC 2998
SK-MEL-5 = system: SK-MEL-5
MDA-MB-231 = system: MDA-MB-231
Hs-578T = system: Hs-578T
UACC-62 = system: UACC-62
MOLT-4 = system: MOLT-4
Malme-3M = system: Malme-3M
TK-10 = system: TK-10
RPMI-8226 = system: RPMI-8226
MCF7 = system: MCF7
CAKI-1 = system: CAKI-1
OVCAR-3 = system: OVCAR-3
A549 = system: A549
SF-268 = system: SF-268
K562 = system: K562
A498 = system: A498
LOX IMVI = system: LOX IMVI
SNB-75 = system: SNB-75
U-251 = system: U-251
CCRF-CEM = system: CCRF-CEM
UACC-257 = system: UACC-257
SK-MEL-28 = system: SK-MEL-28
OVCAR-5 = system: OVCAR-5
ACHN = system: ACHN
SF-539 = system: SF-539
COLO 205 = system: COLO 205
NCI-H522 = system: NCI-H522
KM12 = system: KM12
SK-OV-3 = system: SK-OV-3
SK-MEL-2 = system: SK-MEL-2
HL-60 = system: HL-60
786-0 = system: 786-0
PC-3 = system: PC-3
DU-145 = system: DU-145
HOP-62 = system: HOP-62
HCT-116 = system: HCT-116
NCI/ADR-RES = system: NCI/ADR-RES
NCI-H23 = system: NCI-H23
SW-620 = system: SW-620
SR = system: SR
SNB-19 = system: SNB-19
IGROV-1 = system: IGROV-1
OVCAR-4 = system: OVCAR-4
EKVX = system: EKVX
T47D = system: T47D
MDA-MB-435 = system: MDA-MB-435

`CC1=NN(c2nc(N)nc(C(C#N)C(=O)c3cc4c(cc3Cl)Sc3nccn3S4(=O)=O)n2)C(C)(C)C1` (configuration not stated) was tested, and the GI50 (RXF 393) was 27.3 µM (inactive), the GI50 (SF-295) was 20.5 µM (inactive) and the GI50 (SN12C) was 17.3 µM (inactive). The GI50 (MDA-N) was 21.9 µM (inactive), the GI50 (M14) was 34.5 µM (inactive) and the GI50 (HOP-92) was 26.7 µM (inactive). For the same molecule, the GI50 (NCI-H226) was 16.5 µM (inactive), the GI50 (HCT-15) was 6.44 µM and the GI50 (NCI-H460) was 8.83 µM (inactive). For the same molecule, the GI50 (OVCAR-8) was 20.7 µM (inactive), the GI50 (BT-549) was 13.6 µM (inactive) and the GI50 (UO-31) was 30.1 µM (inactive). The GI50 (HT-29) was 34.3 µM (inactive), the GI50 (HCC 2998) was 8.41 µM (inactive) and the GI50 (SK-MEL-5) was 14 µM (inactive). For the same molecule, the GI50 (MDA-MB-231) was 15.6 µM (inactive), the GI50 (Hs-578T) was 32.2 µM (inactive) and the GI50 (UACC-62) was 18.8 µM (inactive). The GI50 (MOLT-4) was 13 µM (inactive), the GI50 (Malme-3M) was 14.3 µM (inactive) and the GI50 (TK-10) was 17.9 µM (inactive). The GI50 (RPMI-8226) was 14.9 µM (inactive), the GI50 (MCF7) was 14.3 µM (inactive) and the GI50 (CAKI-1) was 13.5 µM (inactive). The GI50 (OVCAR-3) was 13.6 µM (inactive), the GI50 (A549) was 61.4 µM (inactive) and the GI50 (SF-268) was 13.6 µM (inactive). For the same molecule, the GI50 (K562) was 34.9 µM (inactive), the GI50 (A498) was 52.1 µM (inactive) and the GI50 (LOX IMVI) was 17.7 µM (inactive). The GI50 (SNB-75) was 16.1 µM (inactive), the GI50 (U-251) was 16 µM (inactive) and the GI50 (CCRF-CEM) was 6.84 µM (inactive). For the same molecule, the GI50 (UACC-257) was 19.2 µM (inactive), the GI50 (SK-MEL-28) was 20 µM (inactive) and the GI50 (OVCAR-5) was > 100 µM (inactive). For the same molecule, the GI50 (ACHN) was 13.4 µM (inactive), the GI50 (SF-539) was 37.7 µM (inactive) and the GI50 (COLO 205) was 24.9 µM (inactive). The GI50 (NCI-H522) was 18.6 µM (inactive), the GI50 (KM12) was 20 µM (inactive) and the GI50 (SK-OV-3) was 18.5 µM (inactive). For the same molecule, the GI50 (SK-MEL-2) was 20.2 µM (inactive), the GI50 (HL-60) was 10.3 µM (inactive) and the GI50 (786-0) was 13.5 µM (inactive). For the same molecule, the GI50 (PC-3) was 29.2 µM (inactive), the GI50 (DU-145) was 16.8 µM (inactive) and the GI50 (HOP-62) was 34.7 µM (inactive). For the same molecule, the GI50 (HCT-116) was 18 µM (inactive), the GI50 (NCI/ADR-RES) was > 100 µM (inactive) and the GI50 (NCI-H23) was 16.1 µM (inactive). For the same molecule, the GI50 (SW-620) was 20.5 µM (inactive), the GI50 (SR) was 4.4 µM (inactive) and the GI50 (SNB-19) was 55.6 µM (inactive). The GI50 (IGROV-1) was 20.8 µM (inactive), the GI50 (OVCAR-4) was 10.1 µM (inactive) and the GI50 (EKVX) was 16.9 µM (inactive). The GI50 (T47D) was 14.6 µM (inactive) and the GI50 (MDA-MB-435) was 22.8 µM (inactive).

With `COC1=C2CC(C)CC(OC)C(OC(=O)CCCN)C(C)/C=C(\C)C(OC(N)=O)C(OC)/C=C\C=C(/C)C(=O)NC(=CC1=O)C2=O` (configuration not stated) the GI50 (RXF 393) was 3.12 µM (inactive), the GI50 (SF-295) was 16.9 µM (inactive) and the GI50 (SN12C) was 5.5 µM (inactive). For the same molecule, the GI50 (MDA-N) was 4.33 µM (inactive), the GI50 (M14) was 4.56 µM (inactive) and the GI50 (HOP-92) was 4.23 µM (inactive). For the same molecule, the GI50 (NCI-H226) was 16.3 µM (inactive), the GI50 (HCT-15) was 4.97 µM and the GI50 (NCI-H460) was 15.5 µM (inactive). For the same molecule, the GI50 (OVCAR-8) was 6.97 µM (inactive), the GI50 (BT-549) was 4.29 µM (inactive) and the GI50 (UO-31) was 10.5 µM (inactive). The GI50 (HT-29) was 2.43 µM (inactive), the GI50 (HCC 2998) was 10.1 µM (inactive) and the GI50 (SK-MEL-5) was 9.14 µM (inactive). The GI50 (MDA-MB-231) was 9.16 µM (inactive), the GI50 (Hs-578T) was 11.6 µM (inactive) and the GI50 (UACC-62) was 6 µM (inactive). For the same molecule, the GI50 (MOLT-4) was 0.815 µM (active), the GI50 (Malme-3M) was 2.29 µM (inactive) and the GI50 (TK-10) was 7.16 µM (inactive). For the same molecule, the GI50 (RPMI-8226) was 2.29 µM (inactive), the GI50 (MCF7) was 0.865 µM (active) and the GI50 (CAKI-1) was 10.7 µM (inactive). The GI50 (OVCAR-3) was 3.2 µM (inactive), the GI50 (A549) was 25.5 µM (inactive) and the GI50 (SF-268) was 10.3 µM (inactive). For the same molecule, the GI50 (K562) was 0.54 µM (active), the GI50 (A498) was 16.4 µM (inactive) and the GI50 (LOX IMVI) was 2.64 µM (inactive). For the same molecule, the GI50 (SNB-75) was 18.7 µM (inactive), the GI50 (U-251) was 18.5 µM (inactive) and the GI50 (CCRF-CEM) was 0.766 µM (active). For the same molecule, the GI50 (UACC-257) was 5.64 µM (inactive), the GI50 (SK-MEL-28) was 8.61 µM (inactive) and the GI50 (OVCAR-5) was 10.2 µM (inactive). For the same molecule, the GI50 (ACHN) was 5.4 µM (inactive), the GI50 (SF-539) was 6.71 µM (inactive) and the GI50 (COLO 205) was 0.431 µM (active). For the same molecule, the GI50 (NCI-H522) was 0.431 µM (active), the GI50 (KM12) was 10.3 µM (inactive) and the GI50 (SK-OV-3) was 15.5 µM (inactive). For the same molecule, the GI50 (SK-MEL-2) was 12.1 µM (inactive), the GI50 (HL-60) was 0.289 µM (active) and the GI50 (786-0) was 3.68 µM (inactive). The GI50 (PC-3) was 9.2 µM (inactive), the GI50 (DU-145) was 9.23 µM (inactive) and the GI50 (HOP-62) was 17.3 µM (inactive). The GI50 (HCT-116) was 3.98 µM (inactive), the GI50 (NCI/ADR-RES) was 19.9 µM (inactive) and the GI50 (NCI-H23) was 3.65 µM (inactive). For the same molecule, the GI50 (SW-620) was 0.873 µM (active), the GI50 (SR) was 3.02 µM (inactive) and the GI50 (SNB-19) was 15.4 µM (inactive). For the same molecule, the GI50 (IGROV-1) was 7.08 µM (inactive), the GI50 (OVCAR-4) was 7 µM (inactive) and the GI50 (EKVX) was 13.2 µM (inactive). The GI50 (T47D) was 1.09 µM (active) and the GI50 (MDA-MB-435) was 2.97 µM (inactive).

In the case of `CCOC(=O)c1c(N/C(S)=N/c2ccccc2)sc2c1CCOC2`, the GI50 (RXF 393) is reported as 69.2 µM (inactive), the GI50 (SF-295) is reported as 46.8 µM (inactive) and the GI50 (SN12C) is reported as 48.8 µM (inactive). For the same molecule, the GI50 (MDA-N) was 50.1 µM (inactive), the GI50 (M14) was 39.1 µM (inactive) and the GI50 (HOP-92) was 24.9 µM (inactive). For the same molecule, the GI50 (NCI-H226) was > 100 µM (inactive), the GI50 (HCT-15) was 46.7 µM and the GI50 (NCI-H460) was 40.2 µM (inactive). For the same molecule, the GI50 (OVCAR-8) was > 100 µM (inactive), the GI50 (BT-549) was 2.08 µM (inactive) and the GI50 (UO-31) was 45.9 µM (inactive). The GI50 (HT-29) was 89.9 µM (inactive), the GI50 (HCC 2998) was 70.1 µM (inactive) and the GI50 (SK-MEL-5) was 53.1 µM (inactive). For the same molecule, the GI50 (MDA-MB-231) was > 100 µM (inactive), the GI50 (Hs-578T) was 67.3 µM (inactive) and the GI50 (UACC-62) was 28.9 µM (inactive). The GI50 (MOLT-4) was 69.5 µM (inactive), the GI50 (Malme-3M) was 52.1 µM (inactive) and the GI50 (TK-10) was 62.8 µM (inactive). For the same molecule, the GI50 (RPMI-8226) was 55.5 µM (inactive), the GI50 (MCF7) was 33 µM (inactive) and the GI50 (CAKI-1) was 43.3 µM (inactive). The GI50 (OVCAR-3) was 87.9 µM (inactive), the GI50 (A549) was 53.1 µM (inactive) and the GI50 (SF-268) was 64.1 µM (inactive). The GI50 (K562) was > 100 µM (inactive), the GI50 (A498) was 37 µM (inactive) and the GI50 (LOX IMVI) was 52.7 µM (inactive). The GI50 (SNB-75) was 17.5 µM (inactive), the GI50 (U-251) was > 100 µM (inactive) and the GI50 (CCRF-CEM) was 63.7 µM (inactive). For the same molecule, the GI50 (UACC-257) was 64 µM (inactive), the GI50 (SK-MEL-28) was 27.5 µM (inactive) and the GI50 (OVCAR-5) was 38.4 µM (inactive). The GI50 (ACHN) was 97.3 µM (inactive), the GI50 (SF-539) was > 100 µM (inactive) and the GI50 (COLO 205) was > 100 µM (inactive). For the same molecule, the GI50 (NCI-H522) was 64.9 µM (inactive), the GI50 (KM12) was 69.5 µM (inactive) and the GI50 (SK-OV-3) was 85.9 µM (inactive). The GI50 (SK-MEL-2) was 74.6 µM (inactive), the GI50 (HL-60) was 24 µM (inactive) and the GI50 (786-0) was > 100 µM (inactive). For the same molecule, the GI50 (PC-3) was 61.2 µM (inactive), the GI50 (DU-145) was 80.5 µM (inactive) and the GI50 (HOP-62) was 92 µM (inactive). For the same molecule, the GI50 (HCT-116) was 37.2 µM (inactive), the GI50 (NCI/ADR-RES) was 60.4 µM (inactive) and the GI50 (NCI-H23) was 26.4 µM (inactive). For the same molecule, the GI50 (SW-620) was > 100 µM (inactive), the GI50 (SR) was 53.5 µM (inactive) and the GI50 (SNB-19) was > 100 µM (inactive). For the same molecule, the GI50 (IGROV-1) was 27.5 µM (inactive), the GI50 (OVCAR-4) was 61.5 µM (inactive) and the GI50 (EKVX) was 79.6 µM (inactive). For the same molecule, the GI50 (T47D) was 24 µM (inactive) and the GI50 (MDA-MB-435) was 56.6 µM (inactive).
